Reference: EP0880540B1, “17-BETA-CYCLOPROPYL(AMINO/OXY) 4-AZA STEROIDS AS ACTIVE INHIBITORS OF TESTOSTERONE 5-ALPHA-REDUCTASE AND C17-20-LYASE” (Aventis Pharmaceuticals Inc., priority 1996, dated 1997)

How the values were obtained:
[1] = target: T1, cynomolgus monkey C17,20 lyase (Macaca fascicularis, UniProt Q2XVA1); test: In vitro C17,20 lyase assay, testicular microsomes; format: biochemical; settings: mean of duplicates
T1 construct: microsomal preparations of the enzyme from testicular tissue; from tissue; host or cells: cynomolgus monkey testes, microsomes
T1 sequence (Q2XVA1 1-508): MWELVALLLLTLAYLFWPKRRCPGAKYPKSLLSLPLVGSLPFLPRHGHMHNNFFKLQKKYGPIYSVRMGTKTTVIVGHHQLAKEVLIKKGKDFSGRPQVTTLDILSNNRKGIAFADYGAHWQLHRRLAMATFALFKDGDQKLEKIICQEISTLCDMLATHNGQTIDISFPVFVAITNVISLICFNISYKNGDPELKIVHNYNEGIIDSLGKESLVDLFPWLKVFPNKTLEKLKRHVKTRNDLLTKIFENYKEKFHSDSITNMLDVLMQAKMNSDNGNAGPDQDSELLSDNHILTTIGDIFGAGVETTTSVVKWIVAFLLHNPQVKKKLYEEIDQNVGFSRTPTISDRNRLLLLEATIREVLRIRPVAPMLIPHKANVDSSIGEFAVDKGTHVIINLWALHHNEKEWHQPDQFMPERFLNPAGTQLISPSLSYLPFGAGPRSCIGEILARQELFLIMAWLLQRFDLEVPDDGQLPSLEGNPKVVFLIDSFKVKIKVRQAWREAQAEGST
Description: In vitro C17,20 lyase assays: Compounds were tested for inhibition of cynomolgus monkey C17,20 lyase in vitro using microsomal preparations of the enzyme from testicular tissue. Testes were removed from anesthetized animals and flash frozen in liquid nitrogen. Microsomes were isolated as described in Schatzman et al., Anal. Biochem. 175, 219-226 (1988). The compound to be tested was dissolved in dimethyl sulfoxide and diluted in 0.05 M potassium phosphate buffer, pH 7.4, to give the desired concentrations of test compound, in an amount which contributed 0.1% v/v DMSO to the total assay volume. Assays contained 0.05 M potassium phosphate buffer, pH 7.4, an NADPH regenerating system (1 mM NADPH, 5 mM glucose-6-phosphate, 1 IU/mL glucose-6-phosphate dehydrogenase), test compound, substrate and microsomal protein in a total volume of 0.2 mL. Control assays contained all components, including dimethyl sulfoxide, but not test ccmpound. All assays were performed in duplicate. The test compound was incubated with 20 to 62 µg/mL microsomal protein, buffer, and the NADPH regenerating system described above at 34°C for 0 or 40 minutes. Aliquots of 180 µL were then removed and assayed for enzyme activity by addition to 7-[^3H]-17α-hydroxypregnenolone (11.2 mCi/mmole; 0.2 µCi per assay) plus unlabeled 17α-hydroxypregnenolone dissolved in DMSO, contributing 2.5% v/v to the final assay mix, and phosphate buffer to give a total substrate concentration of 0.05 µM (=Km) per assay and subsequent incubation at 34°C for 6 minutes. Each assay was terminated by addition of 5 mL of chloroform:methanol (2:1). Carrier steroids representing substrates and produces (17α-hydroxypregnenolone, dehydroepiandrosterone, and androst-5-ene-3β,17β-diol) and 0.8 mL of distilled, deionized water were also added at this time. The steroids were extracted by the method of Moore and Wilson (Methods in Enzymol., eds. O. Malley, B.W. and Hardman, J.G. 36, 1975, pp. 466-474). The organic phase containing the steroids was evaporated using nitrogen gas, the residues dissolved in 18% tetrahydrofuran (v/v) in hexane, and the steroids were separated by HPLC on a Si60 (5 µm) column (250 x 4 mm) using a gradient of 18-22% tetrahydrofuran (v/v) in hexane. Radioactivity in the steroid peaks was measured using a Radiomatic® Model ES or Model A515 Flo-One® detector.
The enzyme activity for each assay was calculated from the percent conversion of substrate to products, and the results were expressed as percent inhibition of control. The following results were obtained, wherein the values indicated are the mean of duplicate determinations: Table 1: […]

PC-82 Human Tumor = test: PC-82 human tumor growth in nude mice; format: in vivo, male nude mice; settings: MDL 103432 and MDL 105831 50 mg/kg B.I.D., MDL 15910 15 mg/kg B.I.D., per os; for Tumor Growth in PC-82 Human Tumor in Male Nude Mice, Day 7 / Tumor Growth in PC-82 Human Tumor in Male Nude Mice, Day 15 / Tumor Growth in PC-82 Human Tumor in Male Nude Mice, Day 21 / Tumor Growth in PC-82 Human Tumor in Male Nude Mice, Day 28 / Tumor Growth in PC-82 Human Tumor in Male Nude Mice, Day 35 / Tumor Growth in PC-82 Human Tumor in Male Nude Mice, Day -4: corrected group mean; for Tumor Growth in PC-82 Human Tumor in Male Nude Mice, Day -4: Day -4 (before treatment); for Δv/Δt (day 35-day 7): average tumor growth over 28 days from corrected group means
Text: As described in van Steenbrugge, G.J. et al., J. Urol 131: 812-817 (1984) van Steenbrugge G.J. et al., The Prostate 11: 195-210 (1987) and Redding, T.W. et al., Cancer Research 52, 2538-2544 (1992), male nude mice (Hsd:athymic, Nude-nu) were obtained from Harlan Sprague Dawley. Mice were housed in sterilized micro-isolators and fed autoclaved ABLE® rodent chow (Purina Mills Inc., St. Louis, MO) and deionized water, adlibitum. Tumor-donating mice were first anesthetized using sodium pentobarbital and then sacrificed by cervical dislocation. The tumor was subsequently excised and placed in a petri dish containing ice-cold Hanks balanced salt solution. Tumors were cut into 2-3 mm cubes for implantation. Recipient animals were first anesthetized with 50 mg/kg pentobarbital, then implanted, by use of a trocar, with tumor fragments (one per mouse) in the dorsal area. Animals were separated into two control groups, one with vehicle alone and the other castrated, and the treatment groups, where n is the number of animals in each group.
Animals were selected for treatment groups based on tumor size. Each test compound was prepared as a solution or suspension in a lecithin vehicle (L-α-phosphatidylcholine type XV-E) containing methylparaben and propylparaben at a dose volume of 10 cc/kg. Animals were treated for 42 days by oral gavage (per os) seven days per week. Twenty-four hours after the last treatment the animals were euthenized by CO2 and tumors were removed and weighed. During the study period, mice were weighed and palpated weekly for tumors. In Table 5, average tumor growth is determined from the corrected group means over a 28 day period after treatment was started. […] The following animal data was deleted before computation of the corrected mean data in Table 5, Fig. 1: animals 4 and 44; Fig. 2: animals 10, 38 and 42; Fig. 3: Animal 39; Fig. 4: Animals 8, 9 and 49; Fig. 5: Animals 37 and 40 and 41.
Table 5 illustrates the average tumor growth in animals treated with 4-aza-17β-(cyclopropyloxy)-5α-androstan-3-one (MDL 103432; 50 mg/kg B.I.D.) 4-aza-17β-(cyclopropylamino)-androst-5(6)-en-3-one (MDL 105831; 50 mg/kg B.I.D.) and flutamide (MDL 15,910; 15 mg/kg B.I.D.), a known androgen receptor antagonist. The average growth rate of each tested compound relative to the vehicle and castrated controls is consistent with the in vivo inhibition of androgens.

Structure (SMILES) | inhibition at 0.1 µM ([1]; preincubation 0 min) [%] | inhibition at 0.1 µM ([1]; preincubation 40 min) [%] | inhibition at 1 µM ([1]; preincubation 0 min) [%] | inhibition at 1 µM ([1]; preincubation 40 min) [%] | inhibition at 10 µM ([1]; preincubation 0 min) [%] | inhibition at 10 µM ([1]; preincubation 40 min) [%] | Tumor Growth in PC-82 Human Tumor in Male Nude Mice, Day 7 (PC-82 Human Tumor) [mm^3] | Tumor Growth in PC-82 Human Tumor in Male Nude Mice, Day 15 (PC-82 Human Tumor) | Tumor Growth in PC-82 Human Tumor in Male Nude Mice, Day 21 (PC-82 Human Tumor) [mm^3] | Tumor Growth in PC-82 Human Tumor in Male Nude Mice, Day 28 (PC-82 Human Tumor) [mm^3] | Tumor Growth in PC-82 Human Tumor in Male Nude Mice, Day 35 (PC-82 Human Tumor) [mm^3] | Tumor Growth in PC-82 Human Tumor in Male Nude Mice, Day -4 (PC-82 Human Tumor) [mm^3] | Δv/Δt (day 35-day 7) (PC-82 Human Tumor) [mm^3/day]
CC12CCC3C(CC[C@H]4NC(=O)CCC34C)C1CC[C@@H]2OC1CC1 (stereo partly drawn) [MDL 103,432, 17β-Cyclopropyloxy-4-aza-5α-androstan-3-one] | 23.4 | 20.2 | 33 | 54.2 | 68.3 | 80.2 | 180.2 | 220,2 mm^3 | 288.2 | 385.9 | 427.4 | 122.2 | 8.83
C[C@]12CC[C@H]3[C@@H](CC=C4NC(=O)CC[C@@]43C)[C@@H]1CC[C@@H]2NC1CC1 [MDL 105,831, 17β-Cyclopropylamino-4-aza-androst-5-en-3-one] | 11.4 | 24.6 | 26 | 53.8 | 69.6 | 100 | 188.3 | 254.3 mm^3 | 304.3 | 530.7 | 531.1 | 124.9 | 12.24
